Measurements from US12662479B2 (Foghorn Therapeutics Inc., priority 2020, dated 2026).

Legend:
HiBit-BRM fusion protein = biological target: T1, HiBit-BRM fusion protein (Homo sapiens, UniProt P51531); test: HiBiT-BRM cell-based degradation assay (Nano-Glo HiBiT Lytic Detection, 24 h); conditions: HeLa cells expressing HiBiT-BRM; for DC50: read-out: BRM HiBit Degradation IC50; for BRM HiBit Degradation Maximum measured: top dose 30 μM
T1 construct: expressed in transfected cells
Summary of the method: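 Stable HiBiT-BRM HeLa line; 24 h compound exposure, top final 30 μM, 3-fold, 10 pts in duplicate. Lytic HiBiT/LgBiT luminescence readout. % degradation vs DMSO (0%) and 2 μM known BRM/BRG1 degrader (100%).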

[1] = biological target: T2, HiBit-BRG1 fusion protein (Homo sapiens, UniProt P51532); test: HiBiT-BRG1 cell-based degradation assay (Nano-Glo HiBiT Lytic Detection, 24 h); conditions: HeLa cells expressing HiBit-BRG1 and LgBit; for DC50: read-out: BRG1 HiBit Degradation IC50; for Dmax: HeLa, top dose 30 μM, read-out: BRG1 HiBit Degradation Maximum measured
T2 construct: expressed in transfected cells
T2 sequence (P51532 whole entry, the tested form may be a part): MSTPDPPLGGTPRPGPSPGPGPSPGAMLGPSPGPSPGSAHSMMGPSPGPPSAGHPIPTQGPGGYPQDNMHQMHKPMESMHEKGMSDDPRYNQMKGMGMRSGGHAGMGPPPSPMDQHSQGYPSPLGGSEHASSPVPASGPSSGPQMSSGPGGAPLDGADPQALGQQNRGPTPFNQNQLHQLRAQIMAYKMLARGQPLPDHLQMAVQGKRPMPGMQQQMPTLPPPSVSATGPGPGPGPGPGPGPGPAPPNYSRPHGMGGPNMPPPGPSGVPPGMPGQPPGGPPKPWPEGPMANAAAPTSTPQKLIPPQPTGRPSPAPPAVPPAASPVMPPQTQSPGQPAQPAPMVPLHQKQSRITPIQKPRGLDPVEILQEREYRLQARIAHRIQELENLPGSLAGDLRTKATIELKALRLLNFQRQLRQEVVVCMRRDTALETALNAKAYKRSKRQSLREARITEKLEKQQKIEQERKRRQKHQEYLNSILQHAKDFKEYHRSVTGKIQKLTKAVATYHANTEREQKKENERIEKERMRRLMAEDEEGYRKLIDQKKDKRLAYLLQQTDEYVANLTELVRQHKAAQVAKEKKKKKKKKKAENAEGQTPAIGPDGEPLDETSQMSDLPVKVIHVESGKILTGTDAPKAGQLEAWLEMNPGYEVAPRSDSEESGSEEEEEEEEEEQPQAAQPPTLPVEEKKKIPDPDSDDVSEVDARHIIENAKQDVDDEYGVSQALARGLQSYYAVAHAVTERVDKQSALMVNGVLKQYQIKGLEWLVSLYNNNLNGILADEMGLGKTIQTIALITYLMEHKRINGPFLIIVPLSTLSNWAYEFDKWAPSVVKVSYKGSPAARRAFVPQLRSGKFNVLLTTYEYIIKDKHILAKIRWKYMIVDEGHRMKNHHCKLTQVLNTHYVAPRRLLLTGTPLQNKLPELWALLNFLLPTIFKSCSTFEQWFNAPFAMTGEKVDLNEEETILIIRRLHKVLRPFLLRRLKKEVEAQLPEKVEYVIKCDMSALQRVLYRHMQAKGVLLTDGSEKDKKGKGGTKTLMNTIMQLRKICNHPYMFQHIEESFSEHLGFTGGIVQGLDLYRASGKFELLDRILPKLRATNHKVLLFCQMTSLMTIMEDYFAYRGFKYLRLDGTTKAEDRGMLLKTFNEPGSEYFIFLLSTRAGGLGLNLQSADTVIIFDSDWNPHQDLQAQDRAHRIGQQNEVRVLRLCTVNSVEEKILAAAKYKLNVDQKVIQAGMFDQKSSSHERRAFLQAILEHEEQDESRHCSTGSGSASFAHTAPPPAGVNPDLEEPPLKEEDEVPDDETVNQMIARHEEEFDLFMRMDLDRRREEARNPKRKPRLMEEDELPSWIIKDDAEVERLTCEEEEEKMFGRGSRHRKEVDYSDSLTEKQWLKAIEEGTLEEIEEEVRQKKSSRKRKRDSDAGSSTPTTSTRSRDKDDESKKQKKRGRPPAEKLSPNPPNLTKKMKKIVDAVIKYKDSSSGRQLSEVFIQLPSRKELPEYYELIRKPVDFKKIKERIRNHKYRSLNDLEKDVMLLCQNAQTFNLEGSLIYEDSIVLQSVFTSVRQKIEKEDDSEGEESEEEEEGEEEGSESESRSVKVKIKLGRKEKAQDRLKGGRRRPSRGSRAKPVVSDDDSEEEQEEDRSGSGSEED
Summary of the method: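 Degradation is scaled from DMSO-treated cells (0%) to cells given 2 μM of a known BRM/BRG1 degrader (100%). HeLa cells stably carrying HiBiT-BRG1 plus LgBiT (5000/well) were lysed with Nano-Glo HiBiT detection reagent, shaken 10 min at RT, and luminescence read.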

T1 sequence (P51531 whole entry, the tested form may be a part): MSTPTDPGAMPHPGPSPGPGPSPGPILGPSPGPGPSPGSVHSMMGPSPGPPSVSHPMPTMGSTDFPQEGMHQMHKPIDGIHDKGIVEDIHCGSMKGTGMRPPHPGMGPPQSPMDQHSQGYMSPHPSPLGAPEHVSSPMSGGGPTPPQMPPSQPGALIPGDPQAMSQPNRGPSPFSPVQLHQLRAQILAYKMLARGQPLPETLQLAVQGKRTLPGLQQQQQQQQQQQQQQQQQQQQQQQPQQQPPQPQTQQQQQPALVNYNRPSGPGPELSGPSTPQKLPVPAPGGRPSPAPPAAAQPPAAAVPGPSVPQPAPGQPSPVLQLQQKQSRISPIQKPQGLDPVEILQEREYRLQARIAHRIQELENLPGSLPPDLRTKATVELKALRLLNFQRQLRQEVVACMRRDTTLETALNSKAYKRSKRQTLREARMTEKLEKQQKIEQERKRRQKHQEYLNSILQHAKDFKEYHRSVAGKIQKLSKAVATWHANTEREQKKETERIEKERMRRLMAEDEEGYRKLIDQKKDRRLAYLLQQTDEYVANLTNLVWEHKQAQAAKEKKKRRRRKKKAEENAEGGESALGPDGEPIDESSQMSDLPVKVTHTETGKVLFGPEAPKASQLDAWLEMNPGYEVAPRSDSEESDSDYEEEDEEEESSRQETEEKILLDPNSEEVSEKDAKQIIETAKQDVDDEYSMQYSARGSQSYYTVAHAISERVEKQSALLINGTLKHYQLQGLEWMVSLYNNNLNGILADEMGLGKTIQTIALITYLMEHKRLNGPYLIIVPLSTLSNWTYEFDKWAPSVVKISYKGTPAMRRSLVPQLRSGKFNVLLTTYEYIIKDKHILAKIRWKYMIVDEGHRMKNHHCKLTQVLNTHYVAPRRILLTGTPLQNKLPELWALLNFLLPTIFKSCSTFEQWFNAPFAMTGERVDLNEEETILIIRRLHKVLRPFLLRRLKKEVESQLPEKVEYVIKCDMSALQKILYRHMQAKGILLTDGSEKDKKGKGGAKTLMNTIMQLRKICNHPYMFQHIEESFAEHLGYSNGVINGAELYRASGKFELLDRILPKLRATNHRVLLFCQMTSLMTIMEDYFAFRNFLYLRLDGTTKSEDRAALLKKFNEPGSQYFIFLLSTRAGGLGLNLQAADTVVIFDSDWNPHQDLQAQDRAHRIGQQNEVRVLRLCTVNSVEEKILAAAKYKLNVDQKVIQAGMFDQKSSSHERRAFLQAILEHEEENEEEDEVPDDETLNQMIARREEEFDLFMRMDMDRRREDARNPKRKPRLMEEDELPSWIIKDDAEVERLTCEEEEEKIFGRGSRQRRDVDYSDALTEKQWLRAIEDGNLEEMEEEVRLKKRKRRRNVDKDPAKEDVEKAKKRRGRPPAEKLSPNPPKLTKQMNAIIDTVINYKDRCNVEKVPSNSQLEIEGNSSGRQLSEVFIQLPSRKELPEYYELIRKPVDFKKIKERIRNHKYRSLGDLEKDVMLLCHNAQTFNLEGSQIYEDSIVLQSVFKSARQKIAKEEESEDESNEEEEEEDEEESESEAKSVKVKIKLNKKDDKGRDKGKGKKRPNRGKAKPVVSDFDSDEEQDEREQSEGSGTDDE

Row | SMILES | DC50 (HiBit-BRM fusion protein) [nM] | BRM HiBit Degradation Maximum measured (HiBit-BRM fusion protein) | DC50 [1] [nM] | Dmax [1] [%]
1 | CS(=O)(=O)n1ccc(C(=O)N[C@@H](COCc2ccc(C(=O)N3CCN(CCCC#Cc4ccc5c(c4)C(=O)N(C4CCC(=O)NC4=O)C5=O)CC3)cc2)C(=O)Nc2nc(-c3ccccc3)cs2)c1.O=CO (stereo partly drawn) [Compound 239, (2S)-3-[[4-(4-[5-[2-(2,6-dioxopiperidin-3-yl)-1,3-dioxoisoindol-5-yl]pent-4-yn-1-yl]piperazine-1-carbonyl)phenyl]methoxy]-2-[(1-methanesulfonylpyrrol-3-yl)formamido]-N-(4-phenyl-1,3-thiazol-2-yl)propanamide; formic acid] | > 10000 | C (‘C’ = Maximum degradation <50%) | > 10000 | < 50
2 | CS(=O)(=O)n1ccc(C(=O)NCC(=O)Nc2nc(-c3cccc(-c4ccnc(C5(C(=O)N6CCN(CCCOc7ccc8c(c7)C(=O)N(C7CCC(=O)NC7=O)C8=O)CC6)CC5)c4)c3)cs2)c1 (centres unmarked) [Compound 135, N-[4-[3-(2-[1-[4-(3-[[2-(2,6-dioxopiperidin-3-yl)-1,3-dioxoisoindol-5-yl]oxy]propyl)piperazine-1-carbonyl]cyclopropyl]pyridin-4-yl)phenyl]-1,3-thiazol-2-yl]-2-[(1-methanesulfonylpyrrol-3-yl)formamido]acetamide] | 100 to 1000 | B (‘B’ = Maximum degradation ≥50% and ≤75%) | 100 to 1000 | > 75
3 | CS(=O)(=O)n1ccc(C(=O)NCC(=O)Nc2nc(-c3cccc(-c4ccnc(N5CCN(C(=O)CCOCCOCCNc6cccc7c6C(=O)N(C6CCC(=O)NC6=O)C7=O)CC5)c4)c3)cs2)c1 (centres unmarked) [Compound 31, N-[2-[[4-[3-[2-[4-[3-[2-[2-[[2-(2,6-dioxo-3-piperidyl)-1,3-dioxo-isoindolin-4-yl]amino]ethoxy]ethoxy]propanoyl]piperazin-1-yl]-4-pyridyl]phenyl]thiazol-2-yl]amino]-2-oxo-ethyl]-1-methylsulfonyl-pyrrole-3-carboxamide] | 100 to 1000 | A (‘A’ = Maximum degradation >75%) | 100 to 1000 | > 75
4 | CS(=O)(=O)n1ccc(C(=O)N[C@@H](CCCCNC(=O)CCN2CCN(c3ccc4c(c3)C(=O)N(C3CCC(=O)NC3=O)C4=O)CC2)C(=O)Nc2nc(-c3ccccc3)cs2)c1 (stereo partly drawn) [Compound 297, N-((2S)-6-(3-(4-(2-(2,6-dioxopiperidin-3-yl)-1,3-dioxoisoindolin-5-yl)piperazin-1-yl)propanamido)-1-oxo-1-((4-phenylthiazol-2-yl)amino)hexan-2-yl)-1-(methylsulfonyl)-1H-pyrrole-3-carboxamide] | > 10000 | C (‘C’ = Maximum degradation <50%) | > 10000 | < 50
5 | Cc1ncsc1-c1ccc(CNC(=O)[C@@H]2C[C@@H](O)CN2C(=O)[C@@H](NC(=O)N2CC(C(=O)NCc3cccc(-c4cccc(-c5csc(NC(=O)CNC(=O)c6ccn(S(C)(=O)=O)c6)n5)c4)c3)C2)C(C)(C)C)cc1 [Compound 160, N1-[(2S)-1-[(2S,4R)-4-hydroxy-2-([[4-(4-methyl-1,3-thiazol-5-yl)phenyl]methyl]carbamoyl)pyrrolidin-1-yl]-3,3-dimethyl-1-oxobutan-2-yl]-N3-[[3-(2-[2-[(1-methanesulfonylpyrrol-3-yl)formamido]acetamido]-1,3-thiazol-4-yl)-[1,1-biphenyl]-3-yl]methyl]azetidine-1,3-dicarboxamide] | > 10000 | C (‘C’ = Maximum degradation <50%) | > 10000 | < 50
